# Experimental data as given in article PMC8012331, “Drug-induced hepatic steatosis in absence of severe mitochondrial dysfunction in HepaRG cells: proof of multiple mechanism-based toxicity” (Cell Biology and Toxicology, 2020).
# “Also recorded” adds a separate entry of the source.
# How the values were obtained:
# [1] = system: mitochondrial fatty acid oxidation (mtFAO); test: mtFAO with [U-14C]palmitic acid in HepaRG cells; assay type: cell-based, human; conditions: 4 days, vs control
# Procedure: Experiments were carried out on passages 9 to 16. […] DPEN was dissolved in water.
# Results were normalized to total protein content determined using the Pierce BCA assay kit from Thermo Fischer Scientific (Waltham, MA). Results were expressed in comparison to control cells.
# [2] = system: apoB secretion; test: apoB level in culture medium (ELISA), HepaRG cells; assay type: cell-based, human; conditions: 4 days, culture medium, vs control
# [3] = system: apoC3 secretion; test: apoC3 level in culture medium (HTRF), HepaRG cells; assay type: cell-based, human; conditions: 4 days, culture medium, vs control
# Procedure: Briefly, HepaRG cells were seeded in 96-well plates at a density of 2.6 × 10^4 cells/cm^2 and were first incubated in William’s E medium supplemented with 10% FBS (50% FBS from Eurobio and 50% FBS from GE Healthcare), 100 U/mL penicillin, 100 μg/mL streptomycin, 2 mM glutamine, 5 μg/mL insulin, and 50 μM hydrocortisone hemisuccinate. […] During this 1-month period, the culture medium was renewed three times a week. […] HepaRG cells were next cultured in the same FBS/DMSO conditions and incubated for 4 days with each drug at different concentrations. Culture medium was renewed every day and all investigations were performed after 96 h (i.e., 24 h after the fourth treatment). These investigations were mostly performed in 96-well plates except for western blot analysis, for which 6-well plates were used. Experiments were carried out on passages 9 to 16. All drugs (except DPEN), etomoxir, lomitapide, tunicamycin, thapsigargin, and TUDCA were dissolved in DMSO. DPEN was dissolved in water.
# Apolipoprotein C3 (apoC3) level was measured using the Human Apolipoprotein C3 kit from Cisbio Bioassays (Codolet, France), according to the manufacturer’s instructions. Briefly, 10 μL of supernatants was incubated with two different specific anti-human apoC3 antibodies, one donor and one acceptor. The detection principle of apoC3 is based on HTRF® (Homogeneous Time Resolved Fluorescence), a time-resolved FRET (Förster Resonance Energy Transfer) technology. After 2 h of incubation, light emission was measured with the Infinite F Nano+ microplate reader (Tecan, Männedorf, Switzerland). ApoC3 level was calculated utilizing standard curve, based on the ratio of A665 nm/A615 nm, and normalized to the total cellular protein content. Results were expressed in comparison to control cells.
# [4] = Maximum plasma concentration (Cmax) in patients; assay type: in vivo, human; conditions: worked out from cited Cmax in patients
# [5] = system: phospho-IRE1α (Ser724); test: Western blot phospho-IRE1α in HepaRG cells; assay type: cell-based, human
# Procedure: Cells were lysed in ice-cold CelLytic M buffer (C2978; Sigma Aldrich) containing phosphatase and protease inhibitors from Roche Applied Science (Penzberg, Germany). Protein concentration was determined using the Pierce BCA Protein Assay Kit (Thermo Fisher Scientific) and equal amounts of protein were diluted with NuPAGE LDS Sample Buffer (Thermo Fisher Scientific). Samples (ca. 25 μg of proteins) were then separated by SDS-PAGE using NuPAGE 4–12% Bis-Tris gels (Thermo Fisher Scientific). Proteins were transferred to PVDF membranes (BioRad) and Ponceau S staining was used to confirm equal loading and transfer. Membranes were blocked in 7.5% milk in TBST (10 mM Tris–HCl, 100 mM NaCl, 0.02% Tween 20) for 1 h at room temperature and incubated overnight at 4 °C with antibodies against phospho-IRE1α (Ser724) (Abcam, ab124945), IRE1α (Cell Signaling, 3294), or HSC70 (Santa Cruz, sc-7298), whose dilutions were 1:1000. […] Protein content was quantified by densitometry with ImageJ software (National Institutes of Health, Bethesda, MD).
# [6] = system: ERN1 (IRE1α); test: RT-qPCR ERN1 mRNA in HepaRG cells; assay type: cell-based, human; conditions: 4 days, vs control
# In short: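 DNase-treated total RNA from HepaRG cells reverse-transcribed and quantified by SYBR Green RT-qPCR. Expression normalised to GAPDH and given as relative values by the 2^−ΔΔCt method.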
# [7] = system: fatty acid translocase (FAT, also known as CD36); test: RT-qPCR FAT/CD36 mRNA in HepaRG cells; assay type: cell-based, human; conditions: 4 days, vs control
# Procedure: Total RNA was extracted with the Nucleospin RNA isolation system purchased from Macherey-Nagel (Düren, Germany), which included a DNase treatment step. Quantification of isolated RNAs was assessed using a Nanodrop 1000 (Thermo Fisher Scientific, Waltham, MA). RNAs were reverse-transcribed into cDNAs using the High-Capacity cDNA Reverse Transcription Kit purchased from Applied Biosystems (Woolston, UK). Gene expression was assessed by real-time quantitative PCR analysis (RT-qPCR) using SYBR Green PCR Master Mix (Applied Biosystems) and a 384-well QuantStudio™ 7 Flex Real-Time PCR System (Thermo Fisher Scientific). Sequences of the primers used to measure gene expression are presented in Supplementary Table 3. Expression of GAPDH was chosen as reference and the 2^−ΔΔCt calculation method was used to express the relative expression of each selected gene.
# [8] = patients, ref given per drug, cited from earlier work; for Cmax: read-out: Maximum plasma concentration (Cmax) in patients
Structure (SMILES),Effect on mtFAO [1],Effect on apoB secretion [2],Effect on apoC3 secretion [3],Concentration corresponding to 100xCmax [4] [µM],Protein level of phospho-IRE1α (pIRE1α) [5],ERN1 (IRE1α) mRNA level [6],FAT/CD36 mRNA level [7],Maximum plasma concentration (Cmax) in patients [8] [ng/mL],Cmax [8] [µM]
"COc1ccc2c(c1)c(CC(=O)O)c(C)n2C(=O)c1ccc(Cl)cc1 [INDO, indomethacin]",inhibited this metabolic pathway and mild,reduced the secretion,reduced the secretion,2200,increased protein level,enhanced IRE1α mRNA level,significantly augmented,≤ 8000,≤ 22
"CO[C@H]1/C=C/O[C@@]2(C)Oc3c(C)c(O)c4c(O)c(c(/C=N/N5CCN(C)CC5)c(O)c4c3C2=O)NC(=O)/C(C)=C\C=C\[C@H](C)[C@H](O)[C@@H](C)[C@@H](O)[C@@H](C)[C@H](OC(C)=O)[C@@H]1C [RIF, rifampicin]",inhibited this metabolic pathway; also recorded: moderate,reduced the secretion,reduced the secretion,1900,increased protein level,enhanced IRE1α mRNA level,this effect was not observed,≤ 15600,≤ 19
